Usually IC50 stands for the concentration at which inhibition is half-maximal. A low value points to greater potency in that assay.

In ChEMBL document CHEMBL5727726, “Pyridine sulfonamides” (2020) one finds IC50 data, which are given here for two compounds.

The nature of this assay: Nav 1.7In Vitro PX Assay: HEK 293 cells stably transfected with human Nav1.7 were recorded in whole cell voltage clamp mode with the PatchXpress automated electrophysiology system (Molecular Devices, LLC, Sunnyvale, Calif.). Compound effects were measured on a partially inactivated state of the sodium channel. Cells were clamped to a holding potential yielding 20 to 50% inactivation. To elicit sodium current, channels were activated by pulsing to −10 mV for 20 msec. This voltage protocol was repeated at a rate of 0.1 Hz throughout the experiment. A single concentration of test compound was applied to cells for a duration of 3 minutes. Peak sodium current was measured at the end of the compound addition period to determine percent inhibition. Three to five cells were tested per concentration, and IC50 curves were fitted to percent inhibition as a function of concentration. The conditions noted are these: HEK293.

`CNC(=O)N(c1ccc(S(=O)(=O)Nc2ccon2)cn1)c1cc(F)c(-c2cc(F)c(F)c(F)c2)cc1OC` had an IC50 of 86 nM.
In turn, `CNC(=O)N(c1ccc(S(=O)(=O)Nc2ccon2)cn1)c1cc(Cl)c(-c2cc(F)cc(Cl)c2)cc1OC` had an IC50 of 28 nM.
